Data taken from US20240269157A1, “COMPOSITIONS AND METHODS FOR OVERCOMING MICROENVIRONMENT-MEDIATED RESISTANCE VIA E-SELECTIN TARGETING” (GLYCOMIMETICS, INC., priority 2021, published 2024).

How the values were obtained:
[1] = target: T1, recombinant human E-selectin-Fc chimera (Homo sapiens, UniProt P16581); assay: Adhesion of KG1 AML cells to E-selectin in vitro; assay type: cell-based
T1 construct: purchased R&D Systems 724-ES
Method: To further explore this hypothesis, the ability of Compound A to disrupt adhesion of KG1 AML cells to E-selectin was assessed using an in vitro assay. Recombinant human E-selectin-Fc chimera was purchased from R&D Systems (724-ES). KG1 AML cell line was purchased from ATCC (CRL-8031) and cultured in RPMI-1640 medium supplemented with 10% fetal bovine serum (FBS). Costar 96-well polystyrene medium binding assay plates were purchased from Corning (9017). 5-azacitidine (5-AZA) was purchased from Sigma-Aldrich (A2386). Calcein AM was purchased from Molecular Probes (C3100MP). FITC-conjugated antibody reactive with cutaneous lymphocyte antigen (HECA-452-FITC) was purchased from BD Pharmingen (555947).
The wells of a 96-well polystyrene plate were coated with 100 μL of 2 μg/mL recombinant human E-selectin-Fc chimera for 2 hours at 37° C., and then washed three times with Hank's Balanced Saline Solution (HBSS). KG1 cells were fluorescently labeled in culture medium with 3 μM Calcein AM for 60 minutes at 37° C., pelleted by centrifugation at 250×g for 10 minutes, then resuspended in HBSS to 2.5×10^5 cells per mL. Next, 2.5×10^4 cells were added to each well, and the cells were allowed to adhere for 45 minutes at room temperature. In some cases, cells were treated daily with 100 nM 5-azacitidine for 96 hours prior to labeling with Calcein AM and adhesion to E-selectin. Appropriate wells received 1 μL of 10 mM Compound A (final concentration in well: 100 μM) and after 30 minutes the wells were observed by fluorescence microscopy and pre-wash fluorescence measurements were taken using a FlexStation plate reader (excitation 485 nm, emission 538 nm, cutoff 530 nm). Subsequently, the wells were washed gently three times with HBSS and observations by fluorescence microscopy and fluorescence readings were repeated.

[2] = system: KG1 AML tumor cells; assay: KG1 AML mouse model survival; assay type: in vivo, NSG mice; details: for median survival time (MST): Compound A 40 mg/kg i.p. qdx14, 5-azacitidine 5 mg/kg i.p. q3dx5
Method: A KG1 AML mouse model was also employed to determine whether the E-selectin antagonist Compound A could enhance the anti-tumor effect of 5-azacitidine. Female NSG mice (10 per cohort, six weeks of age) received i.v. injections of 5×10^6 KG1 AML tumor cells per mouse. Beginning 7 days post injection, mice were randomized into four cohorts and treated with either saline (i.p. (intraperitoneal), qdx14 (once daily for 14 days)), Compound A (40 mg/kg i.p. qdx14), 5-azacitidine (5 mg/kg i.p. q3dx5), or a combination of Compound A and 5-azacitidine. The efficacies of the treatments on survival were determined by the Kaplan-Meier estimator and log-rank statistics were used to test for significant differences in survival (FIG. 11). The median survival time (MST) of mice treated with 5-azacitidine was 88 days and statistically different from that of mice treated with saline (MST=69.5 days) or Compound A alone (MST=69 days). […] At study conclusion, (day 104 post tumor injection) 20% of mice treated with 5-azacitidine remained alive.

[3] = system: patient-derived primary AML xenograft (JAK2 and c-Kit); assay: PDX model (mutations in JAK2 and c-Kit), LSC retention and CyTOF of BM cells; assay type: in vivo, mice
Description: Intra-vital imaging was employed to investigate the effects of Compound B on AML cell motility in the bone marrow of triple reporter mice (Blood: dextran-TRITC; Host T-cells: DsRed; Host myeloid CD11 cells: EYFP) injected with AML cells carrying a turquoise fluorescent protein reporter gene. […] Individual cells were dislodged from the niche and traveled long-distance (FIG. 17C). The combined inhibition of E-selectin and CXCR4 depleted bone marrow vascular niche areas of leukemia cells.
In order to better understand how the augmented AML mobilization improves the efficacy of AML therapy, BM cells from PDX mice treated for 2 weeks with Compound A, Compound B, venetoclax/HMA (Ven/HMA), and their combinations were analyzed by single-cell proteomics (CyTOF). […] However, pharmacological antagonists of E-selectin (Compound A) or E-selectin/CXCR4 (Compound B) protected endothelial cells from Ven/HMA-induced detrimental insults through upregulation of survival signaling cascades, including pAKT, pERK, pMAPK and […] eNOS expression in endothelial cells compared to Ven/HMA treatment alone.

[4] = in combination with Ven/HMA, 2 weeks, CyTOF of BM cells

T1 sequence (P16581 with tags, fused parts or gaps limits assumed): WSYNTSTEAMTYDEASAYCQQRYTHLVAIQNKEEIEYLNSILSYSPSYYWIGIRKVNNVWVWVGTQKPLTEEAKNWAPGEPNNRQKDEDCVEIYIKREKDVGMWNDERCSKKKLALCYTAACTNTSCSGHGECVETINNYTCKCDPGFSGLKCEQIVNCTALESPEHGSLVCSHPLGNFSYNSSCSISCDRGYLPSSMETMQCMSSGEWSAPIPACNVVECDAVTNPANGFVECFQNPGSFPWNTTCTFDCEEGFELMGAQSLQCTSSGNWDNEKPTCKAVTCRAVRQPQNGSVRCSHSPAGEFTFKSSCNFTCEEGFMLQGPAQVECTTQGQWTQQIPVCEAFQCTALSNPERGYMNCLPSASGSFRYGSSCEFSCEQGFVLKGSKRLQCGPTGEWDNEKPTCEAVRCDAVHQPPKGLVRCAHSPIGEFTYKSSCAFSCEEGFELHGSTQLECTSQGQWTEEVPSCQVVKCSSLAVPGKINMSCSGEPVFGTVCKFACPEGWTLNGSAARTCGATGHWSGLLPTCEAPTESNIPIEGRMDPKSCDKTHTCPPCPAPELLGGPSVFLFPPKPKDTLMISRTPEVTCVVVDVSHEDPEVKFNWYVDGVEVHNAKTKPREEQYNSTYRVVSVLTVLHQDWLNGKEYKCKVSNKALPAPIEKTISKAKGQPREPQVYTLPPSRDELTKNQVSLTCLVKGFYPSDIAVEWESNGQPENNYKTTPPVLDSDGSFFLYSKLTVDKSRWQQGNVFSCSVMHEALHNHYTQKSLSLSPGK

| SMILES | increase in adhesion to E-selectin ([1]; 100 nM 5-AZA 96 hours vs not treated) | fluorescence units of adhered cells ([1]; KG1 cells treated for 96 hours with 100 nM 5-AZA) | median survival time (MST) [2] | mice remaining alive at study conclusion ([2]; day 104 post tumor injection) | fluorescence units after treatment of previously attached cells ([1]; 100 μM Compound A, 30 minutes, p=0.001) | outcome of mice ([2]; All mice treated) | levels of E-selectin ligand, mTOR, pFAK, pRb, cMyc [3, 4] | p21 and cleaved caspase3 [3, 4] | protection of endothelial cells from Ven/HMA-induced detrimental insults ([3]; upregulated pAKT, pERK, pMAPK, decreased eNOS vs Ven/HMA alone) |
| --- | --- | --- | --- | --- | --- | --- | --- | --- | --- |
| Nc1ncn([C@@H]2O[C@H](CO)[C@@H](O)[C@H]2O)c(=O)n1 [5-azacitidine] | 57% | 560.6 fluorescence units | 88 days | 20% | – | – | – | – | – |
| CCC1CC(C(=O)NCCNC(=O)CCOCCOCCOCCOCCOCCOCCOCCOCCOCCOCCOCCOC)C[C@@H](O[C@@H]2OC(CO)[C@H](O)C(O[C@@H](CC3CCCCC3)C(=O)O)C2NC(C)=O)[C@@H]1OC1O[C@@H](C)[C@H](O)C(O)[C@@H]1O (stereo partly shown) [Compound A] | – | – | 69 days | – | 55.2 fluorescence units | succumbed to progressive tumor growth | diminished | increasing | protected |
